# Target: KsgA (Thermus thermophilus, UniProt Q5SM60)
# Assay: X-ray crystal structure
# Settings: cofactor-binding site; co-crystallised with 4 mM adenosine and 4 mM AdoMet, 50 °C for 10 min; crystal form KsgA2
# Chain of KsgA (Q5SM60 whole entry): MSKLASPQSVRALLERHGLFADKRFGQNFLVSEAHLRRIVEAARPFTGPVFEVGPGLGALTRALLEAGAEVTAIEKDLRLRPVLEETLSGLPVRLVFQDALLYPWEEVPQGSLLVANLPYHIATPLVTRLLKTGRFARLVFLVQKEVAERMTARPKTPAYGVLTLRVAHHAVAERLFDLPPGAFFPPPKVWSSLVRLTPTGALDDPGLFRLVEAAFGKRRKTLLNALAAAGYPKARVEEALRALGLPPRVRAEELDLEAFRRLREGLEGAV
smiles,measurement,value
Nc1ncnc2c1ncn2[C@@H]1O[C@H](CO)[C@@H](O)[C@H]1O [adenosine],X-ray crystal structure,these crystals were found to have adenosine in the cofactor-binding site
